T/C data for 30 compounds are collected here from PubChem BioAssay AID330 (DTP/NCI, 2004).

Where “and” joins values, the source holds several entries; their conditions need not be identical. Equal values may be shown once. Toxic doses and inconclusive results are not listed. Square brackets hold non-standard residues; d marks the D form. Peptide text beside a SMILES is read from it. ξ: configuration not given here. ξAbu = CCC(N)C(=O)O

The subject of this assay is P388 leukemia ip, CD2F1 mice, survival T/C. Kind of assay: NCI In Vivo Anticancer Drug Screen. Data for tumor model P388 Leukemia (intraperitoneal) in CD2F1 (CDF1) mice. The following applies: endpoint: median survival time, higher = longer survival. The method in brief: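 Mice carrying the transplanted tumor received test compound or vehicle. Survival was recorded in each group, and the value is the treated-group measurement divided by that of the vehicle-treated control group.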

The mark [1] stands for this setting: dose: 50.0 mg/kg/injection, schedule: Q01DX005 (ip), vehicle: saline with Tween-80.
The mark [2] stands for this setting: dose: 100.0 mg/kg/injection, schedule: Q01DX005 (ip), vehicle: saline with Tween-80.
Setting [3] is: dose: 200.0 mg/kg/injection, schedule: Q01DX005 (ip), vehicle: saline with Tween-80.
Setting [4] is: dose: 50.0 mg/kg/injection, schedule: Q01DX005 (ip), vehicle: Klucel (hydroxypropylcellulose) (HPC).
Setting [5] is: dose: 100.0 mg/kg/injection, schedule: Q01DX005 (ip), vehicle: Klucel (hydroxypropylcellulose) (HPC).
The mark [6] stands for this setting: dose: 200.0 mg/kg/injection, schedule: Q01DX005 (ip), vehicle: Klucel (hydroxypropylcellulose) (HPC).
Setting [7] is: dose: 50.0 mg/kg/injection, schedule: Q01DX009 (ip), vehicle: saline with Tween-80.
Where [8] appears, read: dose: 100.0 mg/kg/injection, schedule: Q01DX009 (ip), vehicle: saline with Tween-80.
Setting [9] is: dose: 200.0 mg/kg/injection, schedule: Q01DX009 (ip), vehicle: saline with Tween-80.
The mark [10] stands for this setting: dose: 60.0 mg/kg/injection, schedule: Q01DX005 (ip), vehicle: Klucel (hydroxypropylcellulose) (HPC).
[11] abbreviates: dose: 120.0 mg/kg/injection, schedule: Q01DX005 (ip), vehicle: Klucel (hydroxypropylcellulose) (HPC).
The mark [12] stands for this setting: dose: 25.0 mg/kg/injection, schedule: Q01DX009 (ip), vehicle: saline with Tween-80.
[13] abbreviates: dose: 60.0 mg/kg/injection, schedule: Q01DX005 (ip), vehicle: saline with Tween-80.
Where [14] appears, read: dose: 120.0 mg/kg/injection, schedule: Q01DX005 (ip), vehicle: saline with Tween-80.
The mark [15] stands for this setting: dose: 240.0 mg/kg/injection, schedule: Q01DX005 (ip), vehicle: saline with Tween-80.
Setting [16] is: dose: 100.0 mg/kg/injection, schedule: Q01DX001 (ip), vehicle: saline with Tween-80.
Where [17] appears, read: dose: 200.0 mg/kg/injection, schedule: Q01DX001 (ip), vehicle: saline with Tween-80.
Setting [18] is: dose: 400.0 mg/kg/injection, schedule: Q01DX001 (ip), vehicle: saline with Tween-80.
[19] abbreviates: dose: 25.0 mg/kg/injection, schedule: Q01DX005 (ip), vehicle: Klucel (hydroxypropylcellulose) (HPC).

For the compound `COc1ccc2c(c1)OCCN(C)OC2c1cccc(Cl)c1` (stereo not given), the T/C is 107 % of control under setting [1], 99 % of control under setting [2] and 92 % of control under setting [3].
For `CCN(CC)CCSC(=O)C(O)(c1ccccc1)c1ccccc1`, the T/C is 108 % of control (dose: 2.5 mg/kg/injection, schedule: Q01DX009 (ip), vehicle: saline); 117 % of control (dose: 5.0 mg/kg/injection, schedule: Q01DX009 (ip), vehicle: saline); 101 % of control (dose: 10.0 mg/kg/injection, schedule: Q01DX009 (ip), vehicle: saline); 100 % of control (dose: 12.5 mg/kg/injection, schedule: Q01DX009 (ip), vehicle: saline); 90 % of control (dose: 20.0 mg/kg/injection, schedule: Q01DX009 (ip), vehicle: saline); 98 % of control (dose: 25.0 mg/kg/injection, schedule: Q01DX009 (ip), vehicle: saline). The T/C runs as follows: (dose: 40.0 mg/kg/injection, schedule: Q01DX009 (ip), vehicle: saline) 101 % of control; (dose: 50.0 mg/kg/injection, schedule: Q01DX009 (ip), vehicle: saline) 101 % of control (2×) and 107 % of control.
`C#CCSc1nnnn1-c1ccc(Br)c(C)c1`: the T/C under setting [4] was 101 % of control, the T/C under setting [5] is 92 % of control and the T/C under setting [6] was 101 % of control.
As for `ClC1c2ccccc2Cc2cccnc21` (stereo not given), the T/C runs as follows: under setting [7], 102 % of control; under setting [8], 101 % of control; under setting [9], 95 % of control.
For `COC(=O)C1(CC(=O)c2c(C)[nH]c3ccccc23)NC(=S)NC(=O)C1C#N` (stereo not given), the T/C is, setting by setting: under setting [10], 100 % of control; under setting [11], 100 % of control; (dose: 240.0 mg/kg/injection, schedule: Q01DX005 (ip), vehicle: Klucel (hydroxypropylcellulose) (HPC)) 100 % of control.
As for `O=NN(CCCl)C(=O)Nc1cccc(O)c1`, the T/C was 220 % of control (dose: 66.0 mg/kg/injection, schedule: Q04DX003 (ip), vehicle: Klucel (hydroxypropylcellulose) (HPC)) and 240 % of control (dose: 100.0 mg/kg/injection, schedule: Q04DX003 (ip), vehicle: Klucel (hydroxypropylcellulose) (HPC)).
In the case of `CCOC(=O)CCN(CCC(=O)OCC)c1ccccn1`, the T/C was 105 % of control under setting [4], 99 % of control under setting [5] and 101 % of control under setting [6].
On to `CC1(CO)CSC(Nc2ccc(Cl)c(Cl)c2)=N1` (stereo not given), for which the T/C is 101 % of control (dose: 3.12 mg/kg/injection, schedule: Q01DX009 (ip), vehicle: saline with Tween-80); 100 % of control and 98 % of control (dose: 6.25 mg/kg/injection, schedule: Q01DX009 (ip), vehicle: saline with Tween-80); 102 % of control (dose: 12.5 mg/kg/injection, schedule: Q01DX009 (ip), vehicle: saline with Tween-80); 104 % of control under setting [12]; 100 % of control under setting [7]; 113 % of control under setting [8]. The T/C under setting [9] is 98 % of control.
Turning to `C1=Cc2cc(CN3CCOCC3)ccc2Nc2ccccc21`, the T/C was 99 % of control under setting [10] and 89 % of control under setting [11].
As to `COCc1onc(-c2ccc(OC)cc2)c1-c1ccc(OC)cc1`, the T/C runs as follows: under setting [13], 105 % of control; under setting [14], 100 % of control; under setting [15], 100 % of control.
For the compound `COC1C/C(=N\OC(C)=O)C2OC(c3ccccc3)OCC2O1` (stereo not given), the T/C by setting is: under setting [7], 93 % of control; under setting [8], 96 % of control; under setting [9], 95 % of control.
For `C[P+]1(CCc2ccc(Cl)cc2)CC=CC1`, the T/C runs as follows: (dose: 25.0 mg/kg/injection, schedule: Q04DX002 (ip), vehicle: saline) 101 % of control; (dose: 50.0 mg/kg/injection, schedule: Q04DX002 (ip), vehicle: saline) 101 % of control.
`CCOc1ccn(CC(=O)N2CCOCC2)c(=O)n1`: the T/C was 90 % of control (dose: 100.0 mg/kg/injection, schedule: Q04DX003 (ip), vehicle: water); 100 % of control (dose: 200.0 mg/kg/injection, schedule: Q04DX003 (ip), vehicle: water); 90 % of control (dose: 400.0 mg/kg/injection, schedule: Q04DX003 (ip), vehicle: water).
As to `N#Cc1c(C(=O)NN)cc(-c2ccc3ccccc3c2)[nH]c1=O`, the T/C by setting is: under setting [1], 100 % of control; under setting [2], 98 % of control.
As for `O=S(=O)(O)c1ccccc1P(c1ccccc1)c1ccccc1`, the T/C was 98 % of control under setting [4], 94 % of control under setting [5] and 88 % of control under setting [6].
On to `CCOC(=O)C1NC(=O)C(C(=O)OCC)NC1=O` (stereo not given), for which the T/C under setting [1] is 96 % of control, the T/C under setting [2] was 92 % of control and the T/C under setting [3] was 93 % of control.
Turning to `CCC(N)C(=O)NCC(=O)NCC(=O)O` (stereo not drawn) (H-[ξAbu]-Gly-Gly-OH), the T/C runs as follows: (dose: 50.0 mg/kg/injection, schedule: Q01DX005 (ip), vehicle: saline) 103 % of control; (dose: 100.0 mg/kg/injection, schedule: Q01DX005 (ip), vehicle: saline) 103 % of control; (dose: 200.0 mg/kg/injection, schedule: Q01DX005 (ip), vehicle: saline) 103 % of control.
Take `CNc1ncnc2ccccc12`: the T/C was 100 % of control under setting [12], 95 % of control under setting [7] and 89 % of control under setting [8].
In the case of `S=c1[nH]nc2nc3c4ccccc4c4ncccc4c3nn12`, the T/C under setting [16] was 92 % of control, the T/C under setting [17] was 91 % of control and the T/C under setting [18] was 100 % of control.
As for `COc1ccc2nccc(CC(O)C(Cl)(Cl)Cl)c2c1` (stereo not given), the T/C by setting is: under setting [1], 105 % of control; under setting [2], 93 % of control; under setting [3], 101 % of control.
As to `O=Nc1c(=O)[nH]c(O)c2ccccc12`, the T/C reads like this: (dose: 25.0 mg/kg/injection, schedule: Q01DX005 (ip), vehicle: saline with Tween-80) 100 % of control; under setting [1], 107 % of control; under setting [2], 93 % of control.
As to `CCOc1cc2c(cc1C/C=C/c1ccccc1)OCO2`, the T/C under setting [1] is 100 % of control, the T/C under setting [2] is 110 % of control and the T/C under setting [3] is 101 % of control.
With `CC(=O)Nc1ccc(C)cc1C1SCCS1`, the T/C by setting is: under setting [12], 90 % of control; under setting [7], 105 % of control; under setting [8], 97 % of control.
As to `NC1[N-]C(C2CCCC[N-]2)CC2CCCCC21.NC1[N-]C(C2CCCC[N-]2)CC2CCCCC21.O=[N+]([O-])O.[Cu+2]` (stereo not given), the T/C runs as follows: (dose: 6.25 mg/kg/injection, schedule: Q04DX002 (ip), vehicle: suspension in saline) 108 % of control; (dose: 12.5 mg/kg/injection, schedule: Q04DX002 (ip), vehicle: suspension in saline) 109 % of control.
Turning to `CC1(C)CNC(=S)O1`, the T/C runs as follows: (dose: 6.25 mg/kg/injection, schedule: Q01DX009 (ip), vehicle: Klucel (hydroxypropylcellulose) (HPC)) 107 % of control; (dose: 12.5 mg/kg/injection, schedule: Q01DX009 (ip), vehicle: Klucel (hydroxypropylcellulose) (HPC)) 100 % of control; (dose: 25.0 mg/kg/injection, schedule: Q01DX009 (ip), vehicle: Klucel (hydroxypropylcellulose) (HPC)) 88 % of control and 89 % of control.
In the case of `CC(=O)OCC1OC(OC2CC(=O)C[C@H]3C(=O)N(c4ccccc4)C(=O)[C@@H]23)C(OC(C)=O)C(OC(C)=O)C1OC(C)=O` (stereo not given in full), the T/C reads like this: under setting [13], 102 % of control; under setting [14], 103 % of control; under setting [15], 92 % of control.
For the compound `CN(C)CC(=O)Nc1ccc2c(c1)C(=O)c1ccc(NC(=O)CN(C)C)cc1C2=O`, the T/C reads like this: under setting [4], 101 % of control; under setting [5], 97 % of control; under setting [6], 99 % of control.
For `C=C1CC(NCC(=O)OCC)=C(O)C1=O`, the T/C by setting is: under setting [19], 93 % of control; under setting [4], 90 % of control; under setting [5], 94 % of control.
`CC(C(=O)O)C1(C(=O)O)CCCCCC1` (stereo not given): the T/C under setting [16] was 100 % of control, the T/C under setting [17] is 93 % of control and the T/C under setting [18] was 109 % of control.
In the case of `CCOC(=O)C(Cc1cc2c(n1C)CCCC2)(NC(C)=O)C(=O)OCC`, the T/C was 98 % of control under setting [19], 96 % of control under setting [4], 98 % of control under setting [5] and 100 % of control under setting [6].
